Each molecule was assayed against T1, human Cot/Tpl2 kinase (Homo sapiens, UniProt P41279) (assay: Tpl2/Cot kinase assay: GST-MEK1 phosphorylation detected by ELISA (DELFIA Eu)). Settings: 0.4 nM Tpl2, 35 nM GST-MEK1, 50 uM ATP, 1 h at 30° C.
T1 construct: human Cot/Tpl2 kinase construct encoding residues 30-398; 6His (N); made in house; host or cells: Sf9 insect cells, baculovirus system (BD Biosciences)
Type: biochemical
Procedure, shortened: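 Substrate phosphorylation (GST-MEK1 Ser217/221) quantified by DELFIA europium ELISA, yielding IC50 values. Reaction: 1 h at 30° C, pH 7.2 MOPS buffer, 50 uM ATP, 35 nM GST-MEK1, 0.4 nM monomeric His-Tpl2 purified from Sf9 cells, compounds at 1% final DMSO; stopped with EDTA.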

T1 sequence (P41279 30-398): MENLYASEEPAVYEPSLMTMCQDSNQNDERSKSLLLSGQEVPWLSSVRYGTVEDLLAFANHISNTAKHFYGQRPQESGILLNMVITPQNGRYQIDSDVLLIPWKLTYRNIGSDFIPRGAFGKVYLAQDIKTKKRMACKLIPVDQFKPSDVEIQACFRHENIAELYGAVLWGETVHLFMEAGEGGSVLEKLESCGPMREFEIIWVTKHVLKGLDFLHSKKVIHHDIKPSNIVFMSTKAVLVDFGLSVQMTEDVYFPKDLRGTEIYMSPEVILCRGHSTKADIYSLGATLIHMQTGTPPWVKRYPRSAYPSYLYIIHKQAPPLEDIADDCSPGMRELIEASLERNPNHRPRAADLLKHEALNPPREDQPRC

Row | SMILES | IC50
1 | Cc1cc(NCc2cccnc2)cc2c(Nc3cccc(Br)c3)c(C#N)cnc12 [Example 126, 4-(3-bromophenylamino)-8-methyl-6-(pyridin-3-ylmethylamino)quinoline-3-carbonitrile] | 3300 nM
2 | N#Cc1cnc2ccc(NCc3nccn3CCN3CCOCC3)cc2c1Nc1ccc(F)c(Cl)c1 [Example 22, 4-(3-Chloro-4-fluoro-phenylamino)-6-{[1-(2-morpholin-4-yl-ethyl)-1H-imidazol-2-ylmethyl]-amino}-quinoline-3-carbonitrile] | 68 nM
3 | N#Cc1cnc2ccc(NCC(=O)O)cc2c1Nc1ccc(F)c(Cl)c1 [Example 175, 2-(4-(3-chloro-4-fluorophenylamino)-3-cyanoquinolin-6-ylamino)acetic acid] | 310 nM
4 | Cn1ccnc1CNc1ccc2ncc(C#N)c(NC3CCCCCC3)c2c1 [Example 249, 4-(cycloheptylamino)-6-{[(1-methyl-1H-imidazol-2-yl)methyl]amino}quinoline-3-carbonitrile] | 380 nM
5 | CN(C)C=Nc1cc(Cl)c2ncc(C#N)c(Nc3ccc(F)c(Cl)c3)c2c1 [Example 206, N′-{8-chloro-4-[(3-chloro-4-fluorophenyl)amino]-3-cyanoquinolin-6-yl}-N,N-dimethylimidoformamide] | 7400 nM
6 | N#Cc1cnc2c(NC=O)cc(NCc3cccnc3)cc2c1Nc1cccc(Cl)c1 [Example 75, N-(4-(3-chlorophenylamino)-3-cyano-6-(pyridin-3-ylmethylamino)quinolin-8-yl)formamide] | 2600 nM
7 | N#Cc1cnc2c(Cl)cc(NCc3cccc(N4CCOCC4)n3)cc2c1Nc1ccc(F)c(Cl)c1 [Example 274, 8-chloro-4-[(3-chloro-4-fluorophenyl)amino]-6-{[(6-morpholin-4-ylpyridin-2-yl)methyl]amino}quinoline-3-carbonitrile] | 35 nM
8 | CC(Nc1ccc2ncc(C#N)c(Nc3ccc(F)c(Cl)c3)c2c1)c1cnc[nH]1 (centres unmarked) [Example 179, 6-(1-(1H-imidazol-5-yl)ethylamino)-4-(3-chloro-4-fluorophenylamino)quinoline-3-carbonitrile] | 3900 nM
9 | N#Cc1cnc2c(NC(=O)c3ccccc3)cc(NCc3cccnc3)cc2c1Nc1cccc(Cl)c1 [Example 73, N-(4-(3-chlorophenylamino)-3-cyano-6-(pyridin-3-ylmethylamino)quinolin-8-yl)benzamide] | > 40000 nM
10 | N#Cc1cnc2ccc(NCc3cccc(C(F)(F)F)c3)cc2c1Nc1ccc(F)c(Cl)c1 [Example 149, 6-(3-(trifluoromethyl)benzylamino)-4-(3-chloro-4-fluorophenylamino)quinoline-3-carbonitrile] | 1500 nM
11 | N#Cc1cnc2c(F)cc(NCc3cccc[n+]3[O-])cc2c1Nc1ccc(F)c(Cl)c1 [Example 266, 4-[(3-chloro-4-fluorophenyl)amino]-8-fluoro-6-{[(1-oxidopyridin-2-yl)methyl]amino}quinoline-3-carbonitrile] | 13 nM
12 | CN(C)CCSc1cc2ncc(C#N)c(Nc3ccc(F)c(Cl)c3)c2cc1NCc1cnc[nH]1 [Example 163, 6-((1H-imidazol-5-yl)methylamino)-4-(3-chloro-4-fluorophenylamino)-7-(2-(dimethylamino)ethylthio)quinoline-3-carbonitrile] | 150 nM
13 | Cc1c(CNc2cc(Br)c3ncc(C#N)c(Nc4ccc(F)c(Cl)c4)c3c2)ncn1C [Example 113, 8-bromo-4-(3-chloro-4-fluorophenylamino)-6-((1,5-dimethyl-1H-imidazol-4-yl)methylamino)quinoline-3-carbonitrile] | 10 nM
14 | N#Cc1cnc2ccc(NCC(N)=O)cc2c1Nc1ccc(F)c(Cl)c1 [Example 176, 2-(4-(3-chloro-4-fluorophenylamino)-3-cyanoquinolin-6-ylamino)acetamide] | 4300 nM
15 | C[S+]([O-])c1cc(NCc2cnc[nH]2)cc2c(Nc3ccc(F)c(Cl)c3)c(C#N)cnc12 (centres unmarked) [Example 284, 4-[(3-chloro-4-fluorophenyl)amino]-6-[(1H-imidazol-5-ylmethyl)amino]-8-(methylsulfinyl)quinoline-3-carbonitrile] | 20 nM

Same assay, conditions: Table 2; Tpl2/Cot kinase, GST-MEK1 substrate, 50 uM ATP

Row | SMILES | IC50
16 | COCCCc1nc[nH]c1CNc1cc(Br)c2ncc(C#N)c(Nc3ccc(F)c(Cl)c3)c2c1 [Example 507] | 62.1 nM
17 | N#Cc1cnc2ccc(NCCN3CCOCC3)cc2c1Nc1ccc(Oc2ccccc2)cc1 [Example 338] | 150 nM
18 | N#Cc1cnc2c(Cl)cc(NCc3cn(CCCO)nn3)cc2c1Nc1ccc(F)c(Cl)c1 [Example 581] | 3.6 nM
19 | N#Cc1cnc2c(Br)cc(N)cc2c1Nc1ccc(F)c(Cl)c1 [Example 393] | 520 nM
20 | N#Cc1cnc2c(Cl)cc(NCc3cn(-c4ccnc(N5CCCCC5)n4)nn3)cc2c1Nc1ccc(F)c(Cl)c1 [Example 578] | 320 nM
21 | COc1ccsc1CNc1cc(Cl)c2ncc(C#N)c(Nc3ccc(F)c(Cl)c3)c2c1 [Example 445] | 1100 nM
22 | CSCn1cc(CNc2cc(Br)c3ncc(C#N)c(Nc4ccc(F)c(Cl)c4)c3c2)nn1 [Example 530] | 12 nM
23 | CNC(=O)CNc1cc(Cl)c2ncc(C#N)c(Nc3ccc(F)c(Cl)c3)c2c1 [Example 473] | 470 nM
24 | CN(C)C(=O)OCCCn1cc(CNc2cc(Cl)c3ncc(C#N)c(Nc4ccc(F)c(Cl)c4)c3c2)nn1 [Example 582] | 16 nM
25 | CC(C)(C)OC(=O)N1CCC(Cn2cc(CNc3cc(Br)c4ncc(C#N)c(Nc5ccc(F)c(Cl)c5)c4c3)nn2)CC1 [Example 494] | 170 nM
26 | N#Cc1cnc2c(Br)cc(NCc3cncn3O)cc2c1Nc1ccc(F)c(Cl)c1 [Example 436] | 150 nM
27 | N#Cc1cnc2c(Cl)cc(NCc3cn(CCc4ccccn4)nn3)cc2c1Nc1ccc(F)c(Cl)c1 [Example 563] | 25 nM
28 | CS(=O)(=O)c1ccc(CNc2ccc3ncc(C#N)c(Nc4cccc(Cl)c4)c3c2)cc1 [Example 349] | 370 nM
29 | CNCCn1cc(CNc2cc(Br)c3ncc(C#N)c(Nc4ccc(F)c(Cl)c4)c3c2)nn1 [Example 512] | 38 nM
30 | N#Cc1cnc2ccc(N)cc2c1NC1CCCC1 [Example 402] | > 40000 nM
31 | CC(C)(C)OC(=O)N1CCCN(CCCn2cc(CNc3cc(Cl)c4ncc(C#N)c(Nc5ccc(F)c(Cl)c5)c4c3)nn2)CC1 [Example 590] | 120 nM

Same assay, conditions: Tpl2/Cot kinase, GST-MEK1 substrate, 50 uM ATP

Row | SMILES | IC50
32 | CC(=O)N1CCC(Nc2cc(Cl)c3ncc(C#N)c(Nc4ccc(F)c(Cl)c4)c3c2)C1 (centres unmarked) [Example 871] | 150 nM
33 | CC(=O)N(CCNc1cc(Cl)c2ncc(C#N)c(Nc3ccc(F)c(Cl)c3)c2c1)Cc1cccnc1 [Example 843] | 58 nM
34 | CN1CCC[C@H]1Cn1cc(CNc2cc(Cl)c3ncc(C#N)c(Nc4ccc(F)c(Cl)c4)c3c2)nn1 [Example 894] | 1.8 nM
35 | N#Cc1cnc2c(Br)cc(NCc3cn(-c4cc[n+]([O-])cc4)nn3)cc2c1Nc1ccc(F)c(Cl)c1 [Example 748] | 15 nM
36 | N#Cc1cnc2c(Cl)cc(NC3CCN(Cc4cccnc4)CC3)cc2c1Nc1ccc(F)c(Cl)c1 [Example 869] | 820 nM
37 | N#Cc1cnc2c(Cl)cc(NCc3cn(Cc4cncnc4)nn3)cc2c1Nc1ccc(F)c(Cl)c1 [Example 879] | 1.1 nM
38 | CC(CNc1cc(Cl)c2ncc(C#N)c(Nc3ccc(F)c(Cl)c3)c2c1)c1ccncc1 (centres unmarked) [Example 806] | 200 nM
39 | N#Cc1cnc2c(Cl)cc(NCc3cn(Cc4ccnc(C(F)(F)F)c4)nn3)cc2c1Nc1ccc(F)c(Cl)c1 [Example 883] | 80 nM
40 | N#Cc1cnc2c(Br)cc(NCc3cn(CCCN4CCCNCC4)nn3)cc2c1Nc1ccc(F)c(Cl)c1 [Example 766] | 43 nM
41 | N#Cc1cnc2c(Cl)cc(C(=O)O)cc2c1Nc1ccc(F)c(Cl)c1 [Example 770] | 2400 nM
42 | N#Cc1cnc2c(Cl)cc(NCc3cncn3CCN3CCOCC3)cc2c1Nc1ccc(F)c(Cl)c1 [Example 671] | 62 nM
43 | N#Cc1cnc2c(Cl)cc(NCc3cn(Cc4cccc(C(F)(F)F)n4)nn3)cc2c1Nc1ccc(F)c(Cl)c1 [Example 882] | 270 nM
44 | N#Cc1cnc2c(Cl)cc(NCc3cn(CC(=O)NC4CC4)nn3)cc2c1Nc1ccc(F)c(Cl)c1 [Example 876] | 1.3 nM
45 | CN(C)CCn1cc(CNc2cc(Br)c3ncc(C#N)c(Nc4ccc(F)c(Cl)c4)c3c2)nn1 [Example 663] | 24 nM
46 | CCN1CCC[C@H]1Cn1cc(CNc2cc(Cl)c3ncc(C#N)c(Nc4ccc(F)c(Cl)c4)c3c2)nn1 [Example 895] | 10 nM
47 | CC(=O)N(CCNc1cc(Cl)c2ncc(C#N)c(Nc3ccc(F)c(Cl)c3)c2c1)Cc1ccncc1 [Example 844] | 60 nM
48 | N#Cc1cnc2c(Br)cc(NCc3cn(CCc4ccncc4)nn3)cc2c1Nc1ccc(F)c(Cl)c1 [Example 919] | 1.3 nM
49 | CN(C)CCC(c1cccnc1)n1cc(CNc2cc(Br)c3ncc(C#N)c(Nc4ccc(F)c(Cl)c4)c3c2)nn1 (centres unmarked) [Example 757] | 6.7 nM

Same assay, conditions: Tpl2/Cot kinase, GST-MEK1 substrate, 50 uM ATP, 1 h at 30° C.; Table 2

Row | SMILES | IC50
50 | N#Cc1cnc2c(Cl)cc(NCc3cn(C4CCNCC4)nn3)cc2c1NC1CCC1 [Example 986] | 350 nM
51 | N#Cc1cnc2c(Cl)cc(NCc3cn(CC(O)c4ccccn4)nn3)cc2c1Nc1ccc(F)c(Cl)c1 (centres unmarked) [Example 993] | 48 nM
52 | CN1CCCC1CCn1cc(CNc2cc(Cl)c3ncc(C#N)c(NC4CCCC5(CCCC5)C4)c3c2)nn1 (centres unmarked) [Example 972] | > 3000 nM
53 | N#Cc1cnc2c(Cl)cc(NCc3cn(CCN4CCCCCC4)nn3)cc2c1NC1CCCCCC1 [Example 949] | 460 nM
54 | N#Cc1cnc2c(Cl)cc(NCc3cn(C4CCNCC4)nn3)cc2c1NC1CCC2(CCCCC2)CC1 [Example 978] | > 3000 nM
55 | CC(C)N1CCC(c2cc(CNc3cc(Br)c4ncc(C#N)c(Nc5ccc(F)c(Cl)c5)c4c3)[nH]n2)CC1 [Example 1044] | 860 nM
56 | N#Cc1cnc2c(Cl)cc(NCc3cn(C4CCC(NC5CC5)CC4)nn3)cc2c1Nc1ccc(F)c(Cl)c1 (centres unmarked) [Example 1040] | 17 nM
